Measured values as given in ChEMBL document CHEMBL3739313, “4-Methylcoumarins with cytotoxic activity against T24 and RT4 human bladder cancer cell lines” (2015).
Activity calls are given as the source filed them. The calls are words filed in the database; no cut-off is given here.

Key:
[1] = Cytotoxicity against human T24 cells assessed as reduction of cell viability at 10 uM after 48 hrs by MTT assay; type: functional, T-24
[2] = Cytotoxicity against human T24 cells assessed as reduction of cell viability at 25 uM after 48 hrs by MTT assay; type: functional, T-24
[3] = Cytotoxicity against human T24 cells assessed as reduction of cell viability at 50 uM after 48 hrs by MTT assay; type: functional, T-24
[4] = Cytotoxicity against human T24 cells assessed as reduction of cell viability at 100 uM after 48 hrs by MTT assay; type: functional, T-24
[5] = Cytotoxicity against human T24 cells assessed as reduction of cell viability at 50 uM after 24 hrs by MTT assay; type: functional, T-24
[6] = Cytotoxicity against human T24 cells assessed as reduction of cell count at 50 uM after 24 hrs; type: functional, T-24; set-up: scale not given: the % may be the effect or the level left
RT-4 = test: Cytotoxicity against human RT4 cells assessed as reduction of cell viability at 5 to 100 uM after 24 hrs by MTT assay; type: functional, cell-based
[7] = Cell cycle arrest in human T24 cells assessed as accumulation at sub-G1 phase at 50 to 100 uM after 24 hrs by flow cytometry assay; type: functional, cell-based; details: T-24
T-24 = test: Induction of apoptosis in human T24 cells at 50 uM after 24 hrs using annexin V/propidium iodide staining by flow cytometry assay; type: functional

Cc1cc(=O)oc2c(O)c(O)cc(C(=O)O)c12
Activity [1]: 21.37%
Activity [2]: 62.26%
Activity [3]: 63.95%
Activity [4]: 65.64%
Activity [5]: 24.14%
Activity [6]: 44.52%
Activity (RT-4): inactive
Activity [7]: Active
Activity (T-24): 22.57%
